Source: patent US20260297080A1, “BICYCLIC COMPOUNDS AS CDK INHIBITORS” (BeOne Medicines I GmbH, priority 2022, published 2026)

Legend:
CDK2/Cyclin E1 = CDK2/Cyclin E1 (Homo sapiens, UniProt P24941); test: CDK2/Cyclin E1 Biochemical Assay (TR-FRET), 0.060 mM ATP; settings: 0.15 μM Rb (Ser780)-biotin substrate, pH7.0, 60 min preincubation, 120 min reaction, room temperature
Procedure, shortened: (§1)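 TR-FRET readout: 665/620 nm ratio from Eu-cryptate anti-pRb(Ser780) antibody plus streptavidin-XL665, converted to % inhibition and fitted (4-parameter logistic) for IC50. Reactions used 0.15 μM biotinylated Rb (Ser780) substrate, compound 0–10 μM, 60 min enzyme–compound preincubation, then 120 min reaction at room temperature.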

CDK1/Cyclin B1 = CDK1/Cyclin B1 (Homo sapiens, UniProt P06493); test: CDK1/Cyclin B1 Biochemical Assay (TR-FRET), 0.015 mM ATP; settings: 0.15 μM Rb (Ser780)-biotin substrate, pH7.0, 60 min preincubation, 120 min reaction, room temperature
Chain of CDK1/Cyclin B1 (P06493 whole entry): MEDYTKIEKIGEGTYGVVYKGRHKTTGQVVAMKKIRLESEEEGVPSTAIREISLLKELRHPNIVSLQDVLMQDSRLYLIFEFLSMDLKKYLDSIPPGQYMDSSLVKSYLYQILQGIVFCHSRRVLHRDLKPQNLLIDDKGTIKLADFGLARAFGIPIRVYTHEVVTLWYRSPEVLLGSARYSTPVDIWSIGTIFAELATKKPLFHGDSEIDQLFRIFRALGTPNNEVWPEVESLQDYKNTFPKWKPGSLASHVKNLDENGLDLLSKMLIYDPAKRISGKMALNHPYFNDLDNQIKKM
Chain of CDK1/Cyclin B1 (P14635 whole entry partner): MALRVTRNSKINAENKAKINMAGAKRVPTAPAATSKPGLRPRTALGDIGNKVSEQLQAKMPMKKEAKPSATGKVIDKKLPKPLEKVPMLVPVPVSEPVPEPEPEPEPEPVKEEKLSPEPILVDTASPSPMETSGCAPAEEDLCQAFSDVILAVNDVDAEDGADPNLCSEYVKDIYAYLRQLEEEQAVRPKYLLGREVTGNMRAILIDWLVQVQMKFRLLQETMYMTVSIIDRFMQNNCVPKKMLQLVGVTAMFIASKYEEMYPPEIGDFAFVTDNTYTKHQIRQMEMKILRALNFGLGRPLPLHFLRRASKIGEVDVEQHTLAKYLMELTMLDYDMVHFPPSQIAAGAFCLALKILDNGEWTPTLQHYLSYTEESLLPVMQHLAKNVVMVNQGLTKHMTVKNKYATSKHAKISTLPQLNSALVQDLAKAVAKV
Procedure, shortened: as §1

| Structure (SMILES) | IC50 (CDK2/Cyclin E1) [nM] | IC50 (CDK1/Cyclin B1) [nM] |
| --- | --- | --- |
| CCCNC(=O)O[C@H]1CC[C@@H](c2cc(Nc3ccc4c(c3F)CN(CCO)S4(=O)=O)n[nH]2)C1 (relative stereo) [Example 126, cis-3-(3-((4-fluoro-2-(2-hydroxyethyl)-1,1-dioxido-2,3-dihydrobenzo[d]isothiazol-5-yl)amino)-1H-pyrazol-5-yl)cyclopentyl propylcarbamate] | 8.3 | 261 |
| [2H]C([2H])([2H])N1Cc2c(ccc(Nc3cc([C@@H]4CC[C@H](OC(=O)NCCC)C4)[nH]n3)c2F)S1(=O)=O (relative stereo) [Example 130, cis-3-(3-((4-fluoro-2-(methyl-d3)-1,1-dioxido-2,3-dihydrobenzo[d]isothiazol-5-yl)amino)-1H-pyrazol-5-yl)cyclopentyl propylcarbamate] | 5.7 | 241 |
| CC1(NC(=O)O[C@H]2CC[C@@H](c3cc(Nc4ccc5c(c4F)CN(C4COC4)S5(=O)=O)n[nH]3)C2)CC1 (relative stereo) [Example 135, cis-3-(3-((4-fluoro-2-(oxetan-3-yl)-1,1-dioxido-2,3-dihydrobenzo[d]isothiazol-5-yl)amino)-1H-pyrazol-5-yl)cyclopentyl(1-methylcyclopropyl)carbamate] | 4.3 | 320 |
| CCCNC(=O)O[C@H]1CC[C@@H](c2cc(Nc3ccc4c(c3F)CN(C3COC3)S4(=O)=O)n[nH]2)C1 (relative stereo) [Example 136, cis-3-(3-((4-fluoro-2-(oxetan-3-yl)-1,1-dioxido-2,3-dihydrobenzo[d]isothiazol-5-yl)amino)-1H-pyrazol-5-yl)cyclopentyl propylcarbamate] | 22 | 457 |
| CCNC(=O)O[C@H]1CC[C@@H](c2cc(Nc3ccc4c(c3F)CNS4(=O)=O)n[nH]2)C1 (relative stereo) [Example 141, cis-3-(3-((4-fluoro-1,1-dioxido-2,3-dihydrobenzo[d]isothiazol-5-yl)amino)-1H-pyrazol-5-yl)cyclopentyl ethylcarbamate] | 8 | 157 |
| C[C@]1(O)CC[C@@H](NC(=O)O[C@H]2CC[C@@H](c3cc(Nc4ccc5c(c4F)CNS5(=O)=O)n[nH]3)C2)CC1 (relative stereo) [Example 144, cis-3-(3-((4-fluoro-1,1-dioxido-2,3-dihydrobenzo[d]isothiazol-5-yl)amino)-1H-pyrazol-5-yl)cyclopentyl((1s,4s)-4-hydroxy-4-methylcyclohexyl)carbamate] | 3.9 | 302 |

Now those with a lower IC50 (CDK2/Cyclin E1), led by results:

| IC50 (CDK2/Cyclin E1) [nM] | IC50 (CDK1/Cyclin B1) [nM] | Structure (SMILES) |
| --- | --- | --- |
| 1.6 | 120 | CN1Cc2c(ccc(Nc3cc([C@@H]4CC[C@H](OC(=O)NC5(C)CC5)C4)[nH]n3)c2F)S1(=O)=O (relative stereo) [Example 124, cis-3-(3-((4-fluoro-2-methyl-1,1-dioxido-2,3-dihydrobenzo[d]isothiazol-5-yl)amino)-1H-pyrazol-5-yl)cyclopentyl(1-methylcyclopropyl)carbamate] |
| 1.9 | 176 | CC[C@H](C)NC(=O)O[C@H]1CC[C@@H](c2cc(Nc3ccc4c(c3F)CN(CCO)S4(=O)=O)n[nH]2)C1 (relative stereo) [Example 127, cis-3-(3-((4-fluoro-2-(2-hydroxyethyl)-1,1-dioxido-2,3-dihydrobenzo[d]isothiazol-5-yl)amino)-1H-pyrazol-5-yl)cyclopentyl((S)-sec-butyl)carbamate] |
| 1.4 | 152 | [2H]C([2H])([2H])N1Cc2c(ccc(Nc3cc([C@@H]4CC[C@H](OC(=O)N[C@@H](C)CC)C4)[nH]n3)c2F)S1(=O)=O (relative stereo) [Example 131, cis-3-(3-((4-fluoro-2-(methyl-d3)-1,1-dioxido-2,3-dihydrobenzo[d]isothiazol-5-yl)amino)-1H-pyrazol-5-yl)cyclopentyl((S)-sec-butyl)carbamate] |
